#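 Each compound was tested at five concentrations against cells in 96-well plates for 48 hours. GI50 is the concentration that inhibits growth by half. TGI: total growth inhibition.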
# Experiments:
# Test in all cases: growth of human tumour cells (NCI), 48 h
# A549 NSCLC = test system: A549 NSCLC
# CCRF-CEM leukemia = test system: CCRF-CEM leukemia
# SNB-19 CNS = test system: SNB-19 CNS
# SK-MEL-5 melanoma = test system: SK-MEL-5 melanoma
# OVCAR-3 ovarian = test system: OVCAR-3 ovarian
# UACC-257 melanoma = test system: UACC-257 melanoma
# CAKI-1 renal = test system: CAKI-1 renal
# NCI-H522 lung = test system: NCI-H522 lung
# 786-0 renal = test system: 786-0 renal
# MOLT-4 leukemia = test system: MOLT-4 leukemia
# OVCAR-4 ovarian = test system: OVCAR-4 ovarian
# SN12C renal = test system: SN12C renal
# COLO 205 colon = test system: COLO 205 colon
# SR leukemia = test system: SR leukemia
# MDA-MB-435 = test system: MDA-MB-435
# PC-3 prostate = test system: PC-3 prostate
# A498 renal = test system: A498 renal
# HCT-15 colon = test system: HCT-15 colon
# BT-549 breast = test system: BT-549 breast
# HT29 colon = test system: HT29 colon
# RPMI-8226 leukemia = test system: RPMI-8226 leukemia
# HCC-2998 colon = test system: HCC-2998 colon
# MDA-MB-468 breast = test system: MDA-MB-468 breast
# T-47D breast = test system: T-47D breast
# LOX IMVI melanoma = test system: LOX IMVI melanoma
# NCI-H226 lung = test system: NCI-H226 lung
# HCT-116 colon = test system: HCT-116 colon
# MDA-MB-231 breast = test system: MDA-MB-231 breast
# SF-295 CNS = test system: SF-295 CNS
# U251 CNS = test system: U251 CNS
# IGROV1 ovarian = test system: IGROV1 ovarian
# HOP-92 NSCLC = test system: HOP-92 NSCLC
# RXF 393 renal = test system: RXF 393 renal
# M14 melanoma = test system: M14 melanoma
# HOP-62 NSCLC = test system: HOP-62 NSCLC
# SK-MEL-2 melanoma = test system: SK-MEL-2 melanoma
# SK-OV-3 ovarian = test system: SK-OV-3 ovarian
# SF-268 CNS = test system: SF-268 CNS
# HL-60(TB) leukemia = test system: HL-60(TB) leukemia
# SF-539 CNS = test system: SF-539 CNS
# OVCAR-5 ovarian = test system: OVCAR-5 ovarian
# NCI-H23 lung = test system: NCI-H23 lung
# OVCAR-8 ovarian = test system: OVCAR-8 ovarian
# SK-MEL-28 melanoma = test system: SK-MEL-28 melanoma
# TK-10 renal = test system: TK-10 renal
# UACC-62 melanoma = test system: UACC-62 melanoma
# DU-145 prostate = test system: DU-145 prostate
# SW-620 colon = test system: SW-620 colon
# MCF7 breast = test system: MCF7 breast
# KM12 colon = test system: KM12 colon
# NCI-H460 lung = test system: NCI-H460 lung
# SNB-75 CNS = test system: SNB-75 CNS
# NCI/ADR-RES ovarian = test system: NCI/ADR-RES ovarian
# HS 578T breast = test system: HS 578T breast
# MALME-3M melanoma = test system: MALME-3M melanoma
# UO-31 renal = test system: UO-31 renal
# ACHN renal = test system: ACHN renal
# EKVX NSCLC = test system: EKVX NSCLC
# K-562 leukemia = test system: K-562 leukemia
structure (smiles),measurement,setting,value
CN1CCc2c(sc3ncnc(N/N=C/c4cccc(Cl)c4Cl)c23)C1,GI50,A549 NSCLC,7.79 µM
same,TGI,A549 NSCLC,> 24 µM
same,GI50,CCRF-CEM leukemia,4.41 µM
same,TGI,CCRF-CEM leukemia,> 24 µM
same,GI50,SNB-19 CNS,5.61 µM
same,TGI,SNB-19 CNS,18.2 µM
same,GI50,SK-MEL-5 melanoma,12.9 µM
same,TGI,SK-MEL-5 melanoma,> 24 µM
same,GI50,OVCAR-3 ovarian,4.77 µM
same,TGI,OVCAR-3 ovarian,13.8 µM
same,GI50,UACC-257 melanoma,> 24 µM
same,TGI,UACC-257 melanoma,> 24 µM
same,GI50,CAKI-1 renal,4.49 µM
same,TGI,CAKI-1 renal,11.4 µM
same,GI50,NCI-H522 lung,9.89 µM
same,TGI,NCI-H522 lung,> 24 µM
same,GI50,786-0 renal,4.79 µM
same,TGI,786-0 renal,10 µM
same,GI50,MOLT-4 leukemia,7.65 µM
same,TGI,MOLT-4 leukemia,> 24 µM
same,GI50,OVCAR-4 ovarian,6.54 µM
same,TGI,OVCAR-4 ovarian,> 24 µM
same,GI50,SN12C renal,5.58 µM
same,TGI,SN12C renal,16.8 µM
same,GI50,COLO 205 colon,4.34 µM
same,TGI,COLO 205 colon,9.78 µM
same,GI50,SR leukemia,3.54 µM
same,TGI,SR leukemia,> 24 µM
same,GI50,MDA-MB-435,13.6 µM
same,TGI,MDA-MB-435,> 24 µM
same,GI50,PC-3 prostate,> 24 µM
same,TGI,PC-3 prostate,> 24 µM
same,GI50,A498 renal,> 24 µM
same,TGI,A498 renal,> 24 µM
same,GI50,HCT-15 colon,4.76 µM
same,TGI,HCT-15 colon,17.1 µM
same,GI50,BT-549 breast,4.13 µM
same,TGI,BT-549 breast,> 24 µM
same,GI50,HT29 colon,4.16 µM
same,TGI,HT29 colon,9.55 µM
same,GI50,RPMI-8226 leukemia,6.69 µM
same,TGI,RPMI-8226 leukemia,> 24 µM
same,GI50,HCC-2998 colon,4.47 µM
same,TGI,HCC-2998 colon,10.7 µM
same,GI50,MDA-MB-468 breast,3.19 µM
same,TGI,MDA-MB-468 breast,10.6 µM
same,GI50,T-47D breast,5.55 µM
same,TGI,T-47D breast,18.3 µM
same,GI50,LOX IMVI melanoma,3.52 µM
same,TGI,LOX IMVI melanoma,6.83 µM
same,GI50,NCI-H226 lung,11.6 µM
same,TGI,NCI-H226 lung,> 24 µM
same,GI50,HCT-116 colon,4.49 µM
same,TGI,HCT-116 colon,11.2 µM
same,GI50,MDA-MB-231 breast,3.88 µM
same,TGI,MDA-MB-231 breast,8.01 µM
same,GI50,SF-295 CNS,3.82 µM
same,TGI,SF-295 CNS,8.23 µM
same,GI50,U251 CNS,4.83 µM
same,TGI,U251 CNS,10.8 µM
same,GI50,IGROV1 ovarian,5.68 µM
same,TGI,IGROV1 ovarian,15.4 µM
same,GI50,HOP-92 NSCLC,4.92 µM
same,TGI,HOP-92 NSCLC,> 24 µM
same,GI50,RXF 393 renal,3.19 µM
same,TGI,RXF 393 renal,12.3 µM
same,GI50,M14 melanoma,12.8 µM
same,TGI,M14 melanoma,> 24 µM
same,GI50,HOP-62 NSCLC,4.45 µM
same,TGI,HOP-62 NSCLC,10.7 µM
same,GI50,SK-MEL-2 melanoma,> 24 µM
same,TGI,SK-MEL-2 melanoma,> 24 µM
same,GI50,SK-OV-3 ovarian,> 24 µM
same,TGI,SK-OV-3 ovarian,> 24 µM
same,GI50,SF-268 CNS,10.7 µM
same,TGI,SF-268 CNS,> 24 µM
same,GI50,HL-60(TB) leukemia,4.01 µM
same,TGI,HL-60(TB) leukemia,10 µM
same,GI50,SF-539 CNS,3.83 µM
same,TGI,SF-539 CNS,7.3 µM
same,GI50,OVCAR-5 ovarian,8.14 µM
same,TGI,OVCAR-5 ovarian,> 24 µM
same,GI50,NCI-H23 lung,5.24 µM
same,TGI,NCI-H23 lung,15.4 µM
same,GI50,OVCAR-8 ovarian,5.81 µM
same,TGI,OVCAR-8 ovarian,17.8 µM
same,GI50,SK-MEL-28 melanoma,13.7 µM
same,TGI,SK-MEL-28 melanoma,> 24 µM
same,GI50,TK-10 renal,5.5 µM
same,TGI,TK-10 renal,18.2 µM
same,GI50,UACC-62 melanoma,> 24 µM
same,TGI,UACC-62 melanoma,> 24 µM
same,GI50,DU-145 prostate,8.34 µM
same,TGI,DU-145 prostate,> 24 µM
same,GI50,SW-620 colon,7.79 µM
same,TGI,SW-620 colon,> 24 µM
same,GI50,MCF7 breast,4.89 µM
same,TGI,MCF7 breast,17.6 µM
same,GI50,KM12 colon,> 24 µM
same,TGI,KM12 colon,> 24 µM
same,GI50,NCI-H460 lung,7.54 µM
same,TGI,NCI-H460 lung,> 24 µM
same,GI50,SNB-75 CNS,5.12 µM
same,TGI,SNB-75 CNS,21.4 µM
same,GI50,NCI/ADR-RES ovarian,4.76 µM
same,TGI,NCI/ADR-RES ovarian,15.3 µM
same,GI50,HS 578T breast,6.56 µM
same,TGI,HS 578T breast,22.9 µM
same,GI50,MALME-3M melanoma,7.15 µM
same,TGI,MALME-3M melanoma,> 24 µM
same,GI50,UO-31 renal,6.39 µM
same,TGI,UO-31 renal,> 24 µM
same,GI50,ACHN renal,3.68 µM
same,TGI,ACHN renal,7.89 µM
same,GI50,EKVX NSCLC,5.09 µM
same,TGI,EKVX NSCLC,17.6 µM
same,GI50,K-562 leukemia,4.42 µM
same,TGI,K-562 leukemia,15.1 µM
